Laboratory results reported in US20250346573A1, “AZAQUINOLINONE DERIVATIVE, PREPARATION METHOD THEREFOR AND USE THEREOF” (CHENGDU EASTON BIOPHARMACEUTICALS CO., LTD., priority 2022, published 2025).

Key:
[1] = test system: BRCA1-mutated MDA-MB-436 cells; assay: Proliferation inhibitory test of BRCA1-mutated MDA-MB-436 cells (CCK-8); format: cell-based; settings: Homo sapiens, 120 h, 5 days, read-out: IC50 (nM), inhibitory activity against BRCA1-mutated MDA-MB-436 cells
Method: (§1) CCK-8 was used to measure the content of mitochondrial dehydrogenase in cells at different drug concentrations, and the luminescence intensity was used to reflect the cell activity. The IC50 values of different compounds on BRCA1-mutated MDA-MB-436 cells were calculated using the survival rate, and the proliferation inhibitory effect of the compounds of the present disclosure on BRCA1-mutated MDA-MB-436 cells was studied to evaluate the anti-tumor efficacy of the test compounds at the cellular level.
(§2) On Day −1, the cells were inoculated into the 96-well cell culture plate at a fixed cell density and then placed in the 5% CO2 cell incubator for culture overnight at 37° C.
(§3) On Day 0, the compound to be tested was prepared into a 10 mM stock solution and diluted into 9 concentration points at the concentration of 1,000 nM, 300 nM, 100 nM, 30 nM, 10 nM, 3 nM, 1 nM, 0.3 nM and 0.1 nM in two duplicated wells. A fixed volume of the diluted compound was added to the 96-well cell culture plate and then placed in the 5% CO2 cell incubator for culture at 37° C. for 5 days.
(§4) On Day 5, a fixed volume of CCK-8 was added to the 96-well cell culture plate and incubated in the 5% CO2 cell incubator at 37° C. for 1.5 h, and the plate was read by a chemiluminescence module of the multifunctional microplate reader.
(§5) With the logarithmic value of the concentration as an X axis and the survival percentage as a Y axis, a dose-effect curve was fitted by using a log(inhibitor) vs. response-Variable slop (Four parameters) formula of the analysis software Graphpad Prism 9, thereby obtaining the IC50 value of the anti-proliferation inhibitory activity of each compound against BRCA1-mutated MDA-MB-436 cells.

[2] = test system: BRCA1-mutated HCC1395 cells; assay: Proliferation inhibitory test of BRCA1-mutated HCC1395 cells (CCK-8); format: cell-based; settings: Homo sapiens, 120 h, 5 days, read-out: IC50 (nM), inhibitory activity against BRCA1-mutated HCC1395 cells
Method: as §1, with “HCC1395” for “MDA-MB-436”
as §2, §3, §4
as §5, with “HCC1395” for “MDA-MB-436”

[3] = Study on pharmacokinetics of rats (oral gavage, plasma LC-MS/MS); format: in vivo; settings: female SD rats, po. 3 mg/kg
Method: With SD rats as test animals, the plasma concentration in the plasma of rats at different time points after oral administration of the compounds of the present application was determined by an LC-MS/MS method. Pharmacokinetic parameters of the compounds of the present application in rats were obtained to study pharmacokinetic characteristics.
SD rats, female, body weight 180-220 g, 3 rats per group. After being purchased, the animals were fed in an animal house for an adaptation period of at least 3 days and then used for testing after passing quarantine.
3.1. Grouping: The SD rats were randomly grouped according to Table 4, which had no statistical difference in the body weight between groups after grouping.
3.2. Vehicle: 10% DMSO and 90% (20% SBE-β-CD in saline).
According to Table 4, each compound was prepared into a clear solution with the vehicle, respectively, and each group was administered by gavage with the corresponding test drug. Before administration, and at 15 min, 30 min, 1 h, 2 h, 4 h, 6 h, 8 h and 24 h after the administration, a fixed volume of blood was collected through sinuses jugularis, placed in an EDTA-K2 anticoagulant tube, and centrifuged at 4,000 rpm for 10 min to separate the plasma in a centrifuge tube. The plasma was frozen in a refrigerator at −80° C.
The plasma stored at −80° C. at each time point was taken out, and a fixed volume of acetonitrile was added thereto. After being vortexed at 1,500 rpm for 2 min, it was centrifuged for 15 min (3,500 r/min). A fixed volume of solution supernatant was taken for LC-MS/MS analysis.
The pharmacokinetic behaviors of the test compounds were fitted with a non-compartmental model, and the main pharmacokinetic parameters were calculated using DAS3.31 software.

For Cc1nc(C(=O)NC2CC2)ccc1N1CCN(Cc2cc(F)c3nc(C)c(=O)[nH]c3c2)CC1 [Compound 55, N-cyclopropyl-5-(4-((8-fluoro-2-methyl-3-oxo-3,4-dihydroquinoxalin-6-yl)methyl)piperazin-1-yl)-6-methylpicolinamide], the IC50 [1] was 2.2 nM, the IC50 [2] was 2.56 nM and the Cl_F_obs [3] was 2.33 mL/min/kg. It also gave an AUC(0-t) ([3]; rat) of 21300 ng·h/mL, a Cmax ([3]; rat) of 2210 ng/mL and a half-life ([3]; rat) of 6.26 h.
